# Measured values from the NIST ThermoML archive (doi:10.1021/je200811n).
# ± gives the expanded uncertainty stated by the source.
# Details: Hot wire method
smiles,measurement,setting,value
"C=C(F)C(F)(F)F [2,3,3,3-tetrafluoro-1-propene]",thermal conductivity,"243.32 K, 15749 kPa, Liquid",0.0891 ± 0.00097 W/m/K
same,thermal conductivity,"243.35 K, 6084 kPa, Liquid",0.08459 ± 0.00093 W/m/K
same,thermal conductivity,"243.38 K, 894 kPa, Liquid",0.08224 ± 0.0009 W/m/K
same,thermal conductivity,"243.47 K, 15756 kPa, Liquid",0.08884 ± 0.00097 W/m/K
same,thermal conductivity,"243.5 K, 10983 kPa, Liquid",0.08672 ± 0.00095 W/m/K
same,thermal conductivity,"243.53 K, 6087 kPa, Liquid",0.0843 ± 0.00092 W/m/K
same,thermal conductivity,"243.57 K, 898 kPa, Liquid",0.08198 ± 0.0009 W/m/K
same,thermal conductivity,"243.7 K, 86 kPa, Gas",0.00931 ± 0.00033 W/m/K
same,thermal conductivity,"243.73 K, 78 kPa, Gas",0.00931 ± 0.00033 W/m/K
same,thermal conductivity,"243.75 K, 69 kPa, Gas",0.00935 ± 0.00033 W/m/K
same,thermal conductivity,"243.84 K, 20954 kPa, Liquid",0.09109 ± 0.00099 W/m/K
same,thermal conductivity,"243.85 K, 21009 kPa, Liquid",0.09114 ± 0.001 W/m/K
same,thermal conductivity,"243.87 K, 15753 kPa, Liquid",0.08885 ± 0.00097 W/m/K
same,thermal conductivity,"243.9 K, 10980 kPa, Liquid",0.0868 ± 0.00095 W/m/K
same,thermal conductivity,"243.94 K, 6082 kPa, Liquid",0.08438 ± 0.00093 W/m/K
same,thermal conductivity,"243.98 K, 898 kPa, Liquid",0.08174 ± 0.0009 W/m/K
same,thermal conductivity,"244.07 K, 15757 kPa, Liquid",0.08866 ± 0.00097 W/m/K
same,thermal conductivity,"244.11 K, 10979 kPa, Liquid",0.08646 ± 0.00096 W/m/K
same,thermal conductivity,"244.16 K, 86 kPa, Gas",0.00935 ± 0.00033 W/m/K
same,thermal conductivity,"244.16 K, 6088 kPa, Liquid",0.08418 ± 0.00092 W/m/K
same,thermal conductivity,"244.2 K, 78 kPa, Gas",0.00935 ± 0.00033 W/m/K
same,thermal conductivity,"244.21 K, 900 kPa, Liquid",0.08153 ± 0.0009 W/m/K
same,thermal conductivity,"244.22 K, 69 kPa, Gas",0.00937 ± 0.00033 W/m/K
same,thermal conductivity,"251.4 K, 100 kPa, Gas",0.0102 ± 0.00035 W/m/K
same,thermal conductivity,"251.41 K, 121 kPa, Gas",0.01025 ± 0.00036 W/m/K
same,thermal conductivity,"251.42 K, 129 kPa, Gas",0.01024 ± 0.00036 W/m/K
same,thermal conductivity,"251.64 K, 100 kPa, Gas",0.01009 ± 0.00035 W/m/K
same,thermal conductivity,"251.65 K, 121 kPa, Gas",0.01014 ± 0.00035 W/m/K
same,thermal conductivity,"251.66 K, 129 kPa, Gas",0.01016 ± 0.00035 W/m/K
same,thermal conductivity,"251.9 K, 121 kPa, Gas",0.00997 ± 0.00035 W/m/K
same,thermal conductivity,"251.91 K, 100 kPa, Gas",0.01002 ± 0.00035 W/m/K
same,thermal conductivity,"251.91 K, 121 kPa, Gas",0.01007 ± 0.00035 W/m/K
same,thermal conductivity,"251.91 K, 130 kPa, Gas",0.01 ± 0.00035 W/m/K
same,thermal conductivity,"251.92 K, 129 kPa, Gas",0.01009 ± 0.00035 W/m/K
same,thermal conductivity,"251.93 K, 100 kPa, Gas",0.00998 ± 0.00035 W/m/K
same,thermal conductivity,"252.23 K, 121 kPa, Gas",0.00999 ± 0.00035 W/m/K
same,thermal conductivity,"252.23 K, 130 kPa, Gas",0.00999 ± 0.00035 W/m/K
same,thermal conductivity,"252.28 K, 100 kPa, Gas",0.01003 ± 0.00035 W/m/K
same,thermal conductivity,"252.6 K, 122 kPa, Gas",0.01002 ± 0.00035 W/m/K
same,thermal conductivity,"252.6 K, 130 kPa, Gas",0.01 ± 0.00035 W/m/K
same,thermal conductivity,"252.67 K, 100 kPa, Gas",0.01006 ± 0.00035 W/m/K
same,thermal conductivity,"253 K, 129 kPa, Gas",0.01005 ± 0.00035 W/m/K
same,thermal conductivity,"253.01 K, 121 kPa, Gas",0.01006 ± 0.00035 W/m/K
same,thermal conductivity,"253.09 K, 100 kPa, Gas",0.01007 ± 0.00035 W/m/K
same,thermal conductivity,"253.15 K, Liquid",0.07836 ± 0.00052 W/m/K
same,thermal conductivity,"253.43 K, 129 kPa, Gas",0.01006 ± 0.00035 W/m/K
same,thermal conductivity,"253.45 K, 121 kPa, Gas",0.01008 ± 0.00035 W/m/K
same,thermal conductivity,"253.53 K, 100 kPa, Gas",0.0101 ± 0.00035 W/m/K
same,thermal conductivity,"261.38 K, 995 kPa, Liquid",0.07662 ± 0.00085 W/m/K
same,thermal conductivity,"261.4 K, 996 kPa, Liquid",0.07661 ± 0.00085 W/m/K
